Test results reported in patent US20160050923A1, “N-SUBSTITUTED ACYL-IMINO-PYRIDINE COMPOUNDS AND DERIVATIVES FOR COMBATING ANIMAL PESTS” (BASF SE, priority 2013, published 2016).

Legend:
Format in all cases: in vivo
Myzus persicae = experiment: Green peach aphid (Myzus persicae) spray test on infested bell pepper plants; conditions: 120 h, read-out: mortality in comparison with untreated controls
Experimental: B.1 Green Peach Aphid (Myzus persicae)
The active compounds were formulated by a Tecan liquid handler in 100% cyclohexanone as a 10,000 ppm solution supplied in tubes. The 10,000 ppm solution was serially diluted in 100% cyclohexanone to make interim solutions. These served as stock solutions for which final dilutions were made by the Tecan in 50% acetone:50% water (v/v) into 5 or 10 ml glass vials. A nonionic surfactant (Kinetic®) was included in the solution at a volume of 0.01% (v/v). The vials were then inserted into an automated electrostatic sprayer equipped with an atomizing nozzle for application to plants/insects.
Bell pepper plants at the first true-leaf stage were infested prior to treatment by placing heavily infested leaves from the main colony on top of the treatment plants. Aphids were allowed to transfer overnight to accomplish an infestation of 30-50 aphids per plant and the host leaves were removed. The infested plants were then sprayed by an automated electrostatic plant sprayer equipped with an atomizing spray nozzle. The plants were dried in the sprayer fume hood, removed, and then maintained in a growth room under fluorescent lighting in a 24-hr photoperiod at about 25° C. and about 20-40% relative humidity. Aphid mortality on the treated plants, relative to mortality on untreated control plants, was determined after 5 days.

Megoura viciae = experiment: Vetch aphid (Megoura viciae) broad bean leaf disk microtiter test; conditions: foliar, 120 h, read-out: mortality in comparison with untreated controls
Experimental: B.2 Vetch Aphid (Megoura viciae)
For evaluating control of vetch aphid (Megoura viciae) through contact or systemic means the test unit consisted of 24-well-microtiter plates containing broad bean leaf disks.
The compounds were formulated using a solution containing 75% v/v water and 25% v/v DMSO. Different concentrations of formulated compounds were sprayed onto the leaf disks at 2.5 μl, using a custom built micro atomizer, at two replications.
After application, the leaf disks were air-dried and 5-8 adult aphids were placed on the leaf disks inside the microtiter plate wells. The aphids were then allowed to suck on the treated leaf disks and were incubated at about 23±1° C. and about 50±5% relative humidity for 5 days. Aphid mortality and fecundity was then visually assessed.

Aphis craccivora = experiment: Cowpea aphid (Aphis craccivora) spray test on potted cowpea plants; conditions: 72 h, read-out: mortality in comparison with untreated controls
Experimental: B.4 Cowpea Aphid (Aphis craccivora)
The active compound was dissolved at the desired concentration in a mixture of 1:1 (vol:vol) distilled water: acetone. Surfactant (Alkamuls® EL 620) was added at a rate of 0.1% (vol/vol). The test solution was prepared at the day of use.
Potted cowpea plants were colonized with approximately 50-100 aphids of various stages by manually transferring a leaf tissue cut from infested plant 24 hours before application. Plants were sprayed after the pest population has been recorded. Treated plants were maintained on light carts at about 28° C. Percent mortality was assessed after 72 hours.

Nephotettix virescens = experiment: Rice green leafhopper (Nephotettix virescens) test on sprayed rice seedlings; conditions: 72 h, read-out: mortality in comparison with untreated controls
Experimental: B.7 Rice Green Leafhopper (Nephotettix virescens)
Rice seedlings were cleaned and washed 24 hours before spraying. The active compounds were formulated in 50:50 acetone:water (vol:vol), and 0.1% vol/vol surfactant (EL 620) was added. Potted rice seedlings were sprayed with 5 ml test solution, air dried, placed in cages and inoculated with 10 adults. Treated rice plants were kept at about 28-29° C. and relative humidity of about 50-60%. Percent mortality was recorded after 72 hours.

Nilaparvata lugens = experiment: Rice brown plant hopper (Nilaparvata lugens) test on sprayed rice seedlings; conditions: 72 h, read-out: mortality in comparison with untreated controls
Experimental: B.8 Rice Brown Plant Hopper (Nilaparvata lugens)
Rice seedlings were cleaned and washed 24 hours before spraying. The active compounds was formulated in 50:50 acetone:water (vol:vol) and 0.1% vol/vol surfactant (EL 620) was added. Potted rice seedlings were sprayed with 5 ml test solution, air dried, placed in cages and inoculated with 10 adults. Treated rice plants were kept at about 28-29° C. and relative humidity of about 50-60%. Percent mortality was recorded after 72 hours.

Dichromothrips corbetti = experiment: Orchid thrips (Dichromothrips corbetti) floral-immersion test; conditions: 72 h, read-out: mortality in comparison with untreated controls
Experimental: B.6 Orchid Thrips (Dichromothrips corbetti)
Dichromothrips corbetti adults used for bioassay were obtained from a colony maintained continuously under laboratory conditions. For testing purposes, the test compound is diluted in a 1:1 mixture of acetone:water (vol:vol), plus 0.01% vol/vol Alkamuls® EL 620 surfactant.
Thrips potency of each compound was evaluated by using a floral-immersion technique. Plastic petri dishes were used as test arenas. All petals of individual, intact orchid flowers were dipped into treatment solution and allowed to dry. Treated flowers were placed into individual petri dishes along with about 20 adult thrips. The petri dishes were then covered with lids. All test arenas were held under continuous light and a temperature of about 28° C. for duration of the assay. After 3 days, the numbers of live thrips were counted on each flower, and along inner walls of each petri dish. The percentmortality was recorded 72 hours after treatment.

CSCC(=O)/N=c1\ccccn1Cc1ccc(Cl)nc1 [E1-9, N-[1-[(6-chloro-3-pyridyl)methyl]-2-pyridylidene]-2-methylsulfanyl-acetamide]
≥ 75%: mortality at 2500 ppm (Myzus persicae) | mortality at 2500 ppm (Megoura viciae) | mortality at 500 ppm (Aphis craccivora) | mortality at 500 ppm (Nephotettix virescens) | mortality at 500 ppm (Nilaparvata lugens)

CS(=O)(=O)CC(=O)N=c1ccccn1Cc1ccc(Cl)nc1 [E1-10, N-[1-[(6-chloro-3-pyridyl)methyl]-2-pyridylidene]-2-methylsulfonyl-acetamide]
≥ 75%: mortality at 2500 ppm (Myzus persicae) | mortality at 2500 ppm (Megoura viciae) | mortality at 500 ppm (Aphis craccivora) | mortality at 500 ppm (Nephotettix virescens) | mortality at 500 ppm (Nilaparvata lugens) | mortality at 500 ppm (Dichromothrips corbetti)
